Source: US8440628B2, “Medical compositions containing ghrelin” (Daiichi Sankyo Company, Limited, priority 2002, dated 2013)

Tests used:
Format in all cases: physicochemical
[1] = Stability of human ghrelin in 0.1M HCl and Mcllvain buffer solutions of various pH at 25°C (Example 2, HPLC peak area ratio)
Description: Human ghrelin was dissolved in the following aqueous solutions in the concentration of about 0.15 μmol/mL (0.5 mg/mL).
0.1M HCl aqueous solution (pH: 1.1)
The pH was adjusted with 0.1M citric aqueous acid and 0.2M dibasic sodium phosphate aqueous solution.
Each solution were stored at 25±2° C. for 8, 24, 48 and 72 hours respectively, and the obtained solutions were detected by HPLC analysis in comparison to the solutions before storage. […] No significant changes of pH in solution before storage and after storage were observed.

[2] = Stability of human ghrelin in Britton-Robinson buffer solutions of various pH at 40°C (Example 3); details: pH range of 2 to 7, stored at 40° C. for 1 day (FIG. 3)
Description: Human ghrelin, which is one of the ghrelins, was dissolved in the Britton-Robinson buffer solutions which is adjusted by combining 0.04M phosphoric acid-acetic acid-boric acid aqueous solution and 0.2M sodium hydrate aqueous solution in appropriate ratio, having pH of 2.1, 3.1, 4.0, 5.0, 6.0, 7.0 and 7.9 to obtain an aqueous solution containing human ghrelin in the concentration of about 0.15 μmol/mL (0.5 mg/mL). The obtained solution was filled in brownish glass ampoules and the ampoules were sealed with fire. For the calculation of kinetic constant, the certain degrees of degradation products have to be occurred in the aqueous solution of the ghrelins, and therefore, the ampoules were stored at 40±1° C., which was severe conditions for storage. The concentration (residual ratio) of human ghrelin was conducted by HPLC with time. At the same time, the pH of the solution was measured and it was confirmed that there was no significant changes of pH in solution.
The kinetic constants in each pH solution were calculated from the sequential change of the residual ratio, and the results were shown in FIG. 2.

[3] = Stability of human ghrelin in pH-adjusted purified water at 25°C (Example 7); details: for Peak area ratio to total peak area: 25±2°C
Description: Human ghrelin was dissolved in the purified water with about 0.03 μmol/mL (0.1 mg/mL). […] This solution was divided into quarter, and one portion was kept alone and the pH values of the remaining three portions were adjusted to pH 1.8 (with 17 mM of hydrochloric acid), pH 3.9 (with 0.20 mM of hydrochloric acid) and pH 7.8 (with 0.24 mM of sodium hydroxide) respectively, by adding along with hydrochloric acid or sodium hydroxide aqueous solution.

[3-Dehydroalanine]human ghrelin [Dha compound]
Production of the degradation product in human ghrelin solution ([1]; Mcllvain buffer, pH range of 3.0 to 5.0, 25±2°C, up to 72 hours): inhibited | Peak area ratio to total peak area ([1]; human ghrelin 0.5 mg/mL in 0.1M HCl aqueous solution, pH 1, 25±2°C, 8 hr. after): 0.15% | Peak area ratio to total peak area ([1]; human ghrelin 0.5 mg/mL in 0.1M HCl aqueous solution, pH 1, 25±2°C, 24 hr. after): 0.09% | Peak area ratio to total peak area ([1]; human ghrelin 0.5 mg/mL in 0.1M HCl aqueous solution, pH 1, 25±2°C, 48 hr. after): 0.04% | Peak area ratio to total peak area ([1]; human ghrelin 0.5 mg/mL in 0.1M HCl aqueous solution, pH 1, 25±2°C, 72 hr. after): 0.00% | Peak area ratio to total peak area ([1]; human ghrelin 0.5 mg/mL in 0.1M HCl aqueous solution, pH 1, 25±2°C, before storage): 0.21% | Peak area ratio to total peak area ([1]; human ghrelin 0.5 mg/mL in Mcllvain buffer, pH 2, 25±2°C, 8 hr. after): 0.20% | Peak area ratio to total peak area ([1]; human ghrelin 0.5 mg/mL in Mcllvain buffer, pH 2, 25±2°C, 24 hr. after): 0.23% | Peak area ratio to total peak area ([1]; human ghrelin 0.5 mg/mL in Mcllvain buffer, pH 2, 25±2°C, 48 hr. after): 0.24% | Peak area ratio to total peak area ([1]; human ghrelin 0.5 mg/mL in Mcllvain buffer, pH 2, 25±2°C, 72 hr. after): 0.25% | Peak area ratio to total peak area ([1]; human ghrelin 0.5 mg/mL in Mcllvain buffer, pH 2, 25±2°C, before storage): 0.20% | Peak area ratio to total peak area ([1]; human ghrelin 0.5 mg/mL in Mcllvain buffer, pH 3, 25±2°C, 8 hr. after): 0.20% | Peak area ratio to total peak area ([1]; human ghrelin 0.5 mg/mL in Mcllvain buffer, pH 3, 25±2°C, 24 hr. after): 0.23% | Peak area ratio to total peak area ([1]; human ghrelin 0.5 mg/mL in Mcllvain buffer, pH 3, 25±2°C, 48 hr. after): 0.24% | Peak area ratio to total peak area ([1]; human ghrelin 0.5 mg/mL in Mcllvain buffer, pH 3, 25±2°C, 72 hr. after): 0.25% | Peak area ratio to total peak area ([1]; human ghrelin 0.5 mg/mL in Mcllvain buffer, pH 3, 25±2°C, before storage): 0.20% | Peak area ratio to total peak area ([1]; human ghrelin 0.5 mg/mL in Mcllvain buffer, pH 4, 25±2°C, 8 hr. after): 0.20% | Peak area ratio to total peak area ([1]; human ghrelin 0.5 mg/mL in Mcllvain buffer, pH 4, 25±2°C, 24 hr. after): 0.21% | Peak area ratio to total peak area ([1]; human ghrelin 0.5 mg/mL in Mcllvain buffer, pH 4, 25±2°C, 48 hr. after): 0.22% | Peak area ratio to total peak area ([1]; human ghrelin 0.5 mg/mL in Mcllvain buffer, pH 4, 25±2°C, 72 hr. after): 0.23% | Peak area ratio to total peak area ([1]; human ghrelin 0.5 mg/mL in Mcllvain buffer, pH 4, 25±2°C, before storage): 0.20% | Peak area ratio to total peak area ([1]; human ghrelin 0.5 mg/mL in Mcllvain buffer, pH 5, 25±2°C, 8 hr. after): 0.21% | Peak area ratio to total peak area ([1]; human ghrelin 0.5 mg/mL in Mcllvain buffer, pH 5, 25±2°C, 24 hr. after): 0.21% | Peak area ratio to total peak area ([1]; human ghrelin 0.5 mg/mL in Mcllvain buffer, pH 5, 25±2°C, 48 hr. after): 0.23% | Peak area ratio to total peak area ([1]; human ghrelin 0.5 mg/mL in Mcllvain buffer, pH 5, 25±2°C, 72 hr. after): 0.24% | Peak area ratio to total peak area ([1]; human ghrelin 0.5 mg/mL in Mcllvain buffer, pH 5, 25±2°C, before storage): 0.21% | Peak area ratio to total peak area ([1]; human ghrelin 0.5 mg/mL in Mcllvain buffer, pH 6, 25±2°C, 8 hr. after): 0.21% | Peak area ratio to total peak area ([1]; human ghrelin 0.5 mg/mL in Mcllvain buffer, pH 6, 25±2°C, 24 hr. after): 0.26% | Peak area ratio to total peak area ([1]; human ghrelin 0.5 mg/mL in Mcllvain buffer, pH 6, 25±2°C, 48 hr. after): 0.31% | Peak area ratio to total peak area ([1]; human ghrelin 0.5 mg/mL in Mcllvain buffer, pH 6, 25±2°C, 72 hr. after): 0.35% | Peak area ratio to total peak area ([1]; human ghrelin 0.5 mg/mL in Mcllvain buffer, pH 6, 25±2°C, before storage): 0.20% | Peak area ratio to total peak area ([1]; human ghrelin 0.5 mg/mL in Mcllvain buffer, pH 7, 25±2°C, 8 hr. after): 0.25% | Peak area ratio to total peak area ([1]; human ghrelin 0.5 mg/mL in Mcllvain buffer, pH 7, 25±2°C, 24 hr. after): 0.43% | Peak area ratio to total peak area ([1]; human ghrelin 0.5 mg/mL in Mcllvain buffer, pH 7, 25±2°C, 48 hr. after): 0.61% | Peak area ratio to total peak area ([1]; human ghrelin 0.5 mg/mL in Mcllvain buffer, pH 7, 25±2°C, 72 hr. after): 0.79% | Peak area ratio to total peak area ([1]; human ghrelin 0.5 mg/mL in Mcllvain buffer, pH 7, 25±2°C, before storage): 0.22% | Peak area ratio to total peak area ([1]; human ghrelin 0.5 mg/mL in Mcllvain buffer, pH 8, 25±2°C, 8 hr. after): 0.68% | Peak area ratio to total peak area ([1]; human ghrelin 0.5 mg/mL in Mcllvain buffer, pH 8, 25±2°C, 24 hr. after): 1.39% | Peak area ratio to total peak area ([1]; human ghrelin 0.5 mg/mL in Mcllvain buffer, pH 8, 25±2°C, 48 hr. after): 2.39% | Peak area ratio to total peak area ([1]; human ghrelin 0.5 mg/mL in Mcllvain buffer, pH 8, 25±2°C, 72 hr. after): 3.12% | Peak area ratio to total peak area ([1]; human ghrelin 0.5 mg/mL in Mcllvain buffer, pH 8, 25±2°C, before storage): 0.24% | Production of the degradation product in human ghrelin solution [2]: inhibited | Production of the degradation product in human ghrelin solution ([3]; aqueous solution of pH 3.9 and 4.7, 25±2°C, up to 3 days): inhibited | Peak area ratio to total peak area ([3]; human ghrelin 0.1 mg/mL in purified water adjusted to pH 1.8 with hydrochloric acid, 1 day after): 0.31% | Peak area ratio to total peak area ([3]; human ghrelin 0.1 mg/mL in purified water adjusted to pH 1.8 with hydrochloric acid, before storage): 0.20% | Peak area ratio to total peak area ([3]; human ghrelin 0.1 mg/mL in purified water adjusted to pH 3.9 with hydrochloric acid, 1 day after): 0.20% | Peak area ratio to total peak area ([3]; human ghrelin 0.1 mg/mL in purified water adjusted to pH 3.9 with hydrochloric acid, 3 days after): 0.19% | Peak area ratio to total peak area ([3]; human ghrelin 0.1 mg/mL in purified water adjusted to pH 3.9 with hydrochloric acid, before storage): 0.20% | Peak area ratio to total peak area ([3]; human ghrelin 0.1 mg/mL in purified water adjusted to pH 7.8 with sodium hydroxide, 1 day after): 0.86% | Peak area ratio to total peak area ([3]; human ghrelin 0.1 mg/mL in purified water adjusted to pH 7.8 with sodium hydroxide, before storage): 0.24% | Peak area ratio to total peak area ([3]; human ghrelin 0.1 mg/mL in purified water, pH 4.7 (not adjusted), 1 day after): 0.21% | Peak area ratio to total peak area ([3]; human ghrelin 0.1 mg/mL in purified water, pH 4.7 (not adjusted), 3 days after): 0.21% | Peak area ratio to total peak area ([3]; human ghrelin 0.1 mg/mL in purified water, pH 4.7 (not adjusted), before storage): 0.20%
